Read-outs that look alike come from different tables or passages of the source.
How the values were obtained:
Type in all cases: biochemical
[1] = biological target: T1, LOXL2 (Homo sapiens, UniProt Q9Y4K0); test: LOXL2 inhibition, Amplex Red oxidation assay
T1 sequence (Q9Y4K0 26-774): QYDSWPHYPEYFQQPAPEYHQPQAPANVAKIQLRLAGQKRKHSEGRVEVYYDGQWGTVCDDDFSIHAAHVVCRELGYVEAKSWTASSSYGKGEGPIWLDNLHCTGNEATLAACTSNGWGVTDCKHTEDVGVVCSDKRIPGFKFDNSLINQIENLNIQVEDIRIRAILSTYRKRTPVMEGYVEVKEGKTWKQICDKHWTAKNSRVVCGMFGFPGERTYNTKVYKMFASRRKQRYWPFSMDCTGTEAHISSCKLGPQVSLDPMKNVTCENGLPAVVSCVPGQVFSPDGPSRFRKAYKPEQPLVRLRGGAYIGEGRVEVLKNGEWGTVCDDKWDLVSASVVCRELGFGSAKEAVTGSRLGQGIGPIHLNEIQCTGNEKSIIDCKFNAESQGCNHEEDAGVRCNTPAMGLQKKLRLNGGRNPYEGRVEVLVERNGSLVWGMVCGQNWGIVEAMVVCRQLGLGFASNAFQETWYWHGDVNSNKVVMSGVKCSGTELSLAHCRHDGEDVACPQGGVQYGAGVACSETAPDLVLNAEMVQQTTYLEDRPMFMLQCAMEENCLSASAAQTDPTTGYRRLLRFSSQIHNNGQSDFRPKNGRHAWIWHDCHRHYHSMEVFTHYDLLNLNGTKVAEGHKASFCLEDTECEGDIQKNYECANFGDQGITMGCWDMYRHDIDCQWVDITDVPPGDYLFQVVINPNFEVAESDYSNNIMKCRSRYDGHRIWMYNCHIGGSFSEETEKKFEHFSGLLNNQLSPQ
Protocol: LOX and LOXL protein family members can be acquired as recombinant active proteins from commercial sources, or extracted from animal tissues like bovine aorta, tendons, pig skin; or prepared from cell cultures. The inhibitory effects of the compounds of the present invention were tested against the given LOX or LOXL preparation using a method based on the detection of hydrogen peroxide with an Amplex Red oxidation assay [Zhou et al, 1997]. The assay was developed using either 384 or 96 well format. Briefly, in a standard black, clear bottom 384 well plate assay 25 µL of a dilution of any of the isoenzymes and orthologues in 1.2 M urea, 50 mM sodium borate buffer (pH 8.2) were added into each well in the presence of […] and 0.5 mM pargyline (to inhibit SSAO and MAO-B and MAO-A, respectively; not necessary if the enzyme is from a recombinant or purified form). […] of a reaction mixture containing twice the KM concentration of putrescine (Sigma Aldrich, e.g. 20 mM for LOX and LOXL1 or 10 mM for LOXL2 and 4 mM for LOXL3 and LOXL4), 120 µM Amplex Red (Thermo Fisher Scientific) and 1.5 U/mL horseradish peroxidase (Sigma Aldrich) prepared in 1.2 M urea, 50 mM sodium borate buffer (pH 8.2) were then added to the corresponding wells. The above volumes were doubled in the case of 96 wells plate. The fluorescence (RFU) was read every 2.5 min for 30 min at 37 °C, excitation 544 nm and emission 590 (Optima; BMG labtech). The slope/min of the kinetics for each well was calculated using MARS data analysis software (BMG labtech) and this value was used to deduce the IC50 value (Dotmatics). The ability of the inventive compounds to inhibit the amine oxidase activity of LOX and other family members is shown in Table 5.

[2] = biological target: T2, LOXL1 (Homo sapiens, UniProt Q08397); test: Jump dilution experiment, sustained inhibition of LOXL1; details: for LOXL1 enzyme activity recovery: at 21-30 min after jump dilution, 10×IC50, 40 min preincubation at 37 °C; for Sustained inhibition of LOXL1: jump dilution, 21-30 min
T2 sequence (Q08397 96-574): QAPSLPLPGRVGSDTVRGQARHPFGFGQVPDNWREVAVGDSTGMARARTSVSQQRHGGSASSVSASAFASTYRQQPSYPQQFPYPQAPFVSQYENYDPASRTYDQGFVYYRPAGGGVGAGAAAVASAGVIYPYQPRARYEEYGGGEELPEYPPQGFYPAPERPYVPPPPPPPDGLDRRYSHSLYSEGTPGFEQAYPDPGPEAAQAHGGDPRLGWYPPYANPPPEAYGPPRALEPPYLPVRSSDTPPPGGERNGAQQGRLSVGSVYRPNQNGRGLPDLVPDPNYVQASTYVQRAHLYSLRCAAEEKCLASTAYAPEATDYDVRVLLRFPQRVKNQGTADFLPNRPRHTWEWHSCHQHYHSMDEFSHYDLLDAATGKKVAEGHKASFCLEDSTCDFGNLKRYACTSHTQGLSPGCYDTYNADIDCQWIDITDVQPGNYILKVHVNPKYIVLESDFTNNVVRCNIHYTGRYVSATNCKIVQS
Protocol: (§1) Jump Dilution experiment: The assay was developed using a 96 well format and the starting enzyme concentration was set 100 times higher than for the inhibition studies. The enzyme was incubated for 40 minutes at 37 °C in presence of 10×IC50 concentrations of the test inhibitor. After the incubation, the mixture was diluted 50x in assay buffer, followed by a further 2× dilution in Amplex Red-horseradish peroxidase-putrescine reaction mix (as for Example 2) prior to the fluorescence measurement. Results were expressed in % recovery of the signal at 21-30 min by comparison with non-inhibited controls. LOXL1 is used as a surrogate for LOX owing to similar pharmacological behaviour.

[3] = biological target: T1, LOXL2; test: Jump dilution experiment, sustained inhibition of LOXL2; details: for LOXL2 enzyme activity recovery: at 21-30 min after jump dilution, 10×IC50, 40 min preincubation at 37 °C; for Sustained inhibition of LOXL2: jump dilution, 21-30 min
Protocol: as §1

[4] = 30 min incubation with enzyme at 37 °C, read-out: Human recombinant LOXL2 Activity IC50

Row | IC50 ([1]; 2 h incubation with enzyme at 37 °C, read-out: Human LOXL2 Activity IC50) [nM] | Structure (SMILES) | IC50 [1, 4] [nM] | LOXL1 enzyme activity recovery [2] [%] | Sustained inhibition of LOXL1 [2] | LOXL2 enzyme activity recovery [3] [%] | Sustained inhibition of LOXL2 [3]
1 |  | N#CCCN [BAPN, β-aminopropionitrile, reference compound] | 400 | 0.3 | sustained inhibition | 11.2 | sustained inhibition
2 | < 2000 | NC/C(=C\F)CS(=O)(=O)c1ccccc1 [Compound 1, (E)-3-fluoro-2-((phenylsulfonyl)methyl)prop-2-en-1-amine] | 4800 | 2.5 | sustained inhibition | 2.5 | sustained inhibition
